Like-named read-outs stand apart in the source and are kept apart here.

Experiment [1] relates to 5-enolpyruvylshikimate-3-phosphate synthase (EPSPS), glyphosate-resistant (R) and very resistant (VR) populations. The following applies: read-out: I50, glyphosate 0-1000 μM, stated gain. The source says: EPSPS activity in leaf extract, inorganic phosphate release on 5-enolpyruvylshikimate-3-phosphate synthase (EPSPS), glyphosate-resistant (R) and very resistant (VR) populations

In experiment [2] the test system is T1, 5-enolpyruvylshikimate-3-phosphate synthase (EPSPS), glyphosate-susceptible populations.
T1 construct: native enzyme in leaf extract; hexaploid species, homoeologous EPSPS copies not distinguished
Description: EPSPS activity in leaf extract, inorganic phosphate release. Format: biochemical, Echinochloa crus-galli. The following applies: population E2 (susceptible); glyphosate 0-1000 μM; read-out: I50.

Take `O=C(O)CNCP(=O)(O)O` [glyphosate]: the IC50 in experiment [1] (population E7) amounted to 11.7 µM; in experiment [1] (population E9), 18.1 µM; in experiment [1] (population E10, possible EPSPS overexpression), 54.8 µM; in experiment [1] (population E12, possible EPSPS overexpression) it was 45.6 µM; in experiment [2] it was 0.8 µM.

These data come from paper PMC7928338, “Distribution of Glyphosate-Resistance in Echinochloa crus-galli Across Agriculture Areas in the Iberian Peninsula” (Frontiers in Plant Science, 2021).
